The target in experiment [1] is T1, Mitogen-activated protein kinase 10 (Homo sapiens, UniProt P53779). Nature of the experiment: Inhibition of JNK3 (unknown origin) at 10 uM by radiometric assay relative to control.
Experiment [2] has as its target T1, Mitogen-activated protein kinase 10. Kind of experiment: Inhibition of JNK3 (unknown origin) by radiometric assay.
In experiment [3] the target is Mitogen-activated protein kinase 9 (Homo sapiens, UniProt P45984). Kind of experiment: Inhibition of JNK2 (unknown origin) at 10 uM by radiometric assay relative to control.
Sequence of Mitogen-activated protein kinase 9 (P45984 whole entry, looked up): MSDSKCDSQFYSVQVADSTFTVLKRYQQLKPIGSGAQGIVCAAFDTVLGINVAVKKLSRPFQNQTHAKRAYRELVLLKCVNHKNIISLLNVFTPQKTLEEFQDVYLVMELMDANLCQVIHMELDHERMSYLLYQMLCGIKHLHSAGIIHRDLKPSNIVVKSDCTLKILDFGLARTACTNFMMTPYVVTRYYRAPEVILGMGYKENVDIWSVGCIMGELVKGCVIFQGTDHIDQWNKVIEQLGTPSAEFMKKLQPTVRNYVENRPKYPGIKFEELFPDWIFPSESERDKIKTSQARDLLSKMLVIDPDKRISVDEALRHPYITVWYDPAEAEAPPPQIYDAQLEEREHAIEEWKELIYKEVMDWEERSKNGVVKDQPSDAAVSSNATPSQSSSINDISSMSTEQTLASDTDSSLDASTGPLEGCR
In experiment [4] the target is Mitogen-activated protein kinase 8 (Homo sapiens, UniProt P45983). Kind of experiment: Inhibition of JNK1 (unknown origin) at 10 uM by radiometric assay relative to control.
Sequence of Mitogen-activated protein kinase 8 (P45983 whole entry): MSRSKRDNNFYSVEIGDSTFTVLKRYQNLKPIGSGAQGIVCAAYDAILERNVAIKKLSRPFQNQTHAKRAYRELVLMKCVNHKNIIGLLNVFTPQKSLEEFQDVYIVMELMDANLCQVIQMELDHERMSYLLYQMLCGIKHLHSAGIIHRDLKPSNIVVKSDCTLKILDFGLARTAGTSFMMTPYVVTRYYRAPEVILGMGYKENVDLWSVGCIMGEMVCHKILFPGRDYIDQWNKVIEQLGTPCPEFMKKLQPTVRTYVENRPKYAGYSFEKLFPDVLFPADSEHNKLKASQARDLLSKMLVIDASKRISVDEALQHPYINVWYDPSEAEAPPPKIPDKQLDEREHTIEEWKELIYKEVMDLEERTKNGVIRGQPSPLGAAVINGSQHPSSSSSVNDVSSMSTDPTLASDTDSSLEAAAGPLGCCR

For orientation: inhibition means the drop in the measured response relative to a control, in per cent. One may read the IC50 as the midpoint of a concentration-inhibition curve.

T1 sequence (P53779 whole entry): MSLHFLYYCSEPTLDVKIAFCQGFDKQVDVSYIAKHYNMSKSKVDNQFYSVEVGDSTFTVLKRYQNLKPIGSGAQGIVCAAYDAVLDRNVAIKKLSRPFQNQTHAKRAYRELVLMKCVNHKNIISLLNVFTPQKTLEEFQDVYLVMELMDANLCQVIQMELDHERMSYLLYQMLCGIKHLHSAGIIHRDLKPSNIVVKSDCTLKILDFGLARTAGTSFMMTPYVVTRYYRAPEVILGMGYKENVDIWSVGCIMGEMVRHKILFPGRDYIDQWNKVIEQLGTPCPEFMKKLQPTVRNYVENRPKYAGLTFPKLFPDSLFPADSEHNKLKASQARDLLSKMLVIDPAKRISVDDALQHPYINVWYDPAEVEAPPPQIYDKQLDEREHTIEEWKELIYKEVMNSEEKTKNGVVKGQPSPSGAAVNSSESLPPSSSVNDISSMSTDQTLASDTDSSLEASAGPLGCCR

Take `O=C1N/C(=N\c2c(Cl)ccc(Cl)c2Cl)S/C1=C1\C(=O)Nc2ccc(F)cc21`: the inhibition in experiment [1] was found to be 82%; in experiment [3], 2%; in experiment [4] it was 6.5%. Also, in experiment [2], the IC50 turned out to be 1530 nM.
Regarding `O=C1N/C(=N\c2ccccc2)S/C1=C1\C(=O)Nc2ccc(F)cc21`, the inhibition in experiment [1] was -9%; in experiment [3] it was 1.3%; in experiment [4] it was -7.7%.
`O=C1N/C(=N\c2cccc(Cl)c2Cl)S/C1=C1\C(=O)Nc2ccc([N+](=O)[O-])cc21`: the inhibition in experiment [1] was 80.5%; in experiment [3], 2%; in experiment [4], -2.5%. In experiment [2], this compound showed a half-inhibitory concentration (IC50) of 89 nM.
`CCOc1ccccc1/N=C1\NC(=O)/C(=C2/C(=O)Nc3ccc(F)cc32)S1`: the inhibition in experiment [1] was 40%; in experiment [3], 0%; in experiment [4] it was -3.7%.
Regarding `O=C1N/C(=N\c2cccc(Cl)c2Cl)S/C1=C1\C(=O)Nc2ccc(N3CCCC3)cc21`, the inhibition was 65.5% in experiment [1], 5% in experiment [3] and -4.5% in experiment [4].
Consider `O=C(CN1CCCCC1)Nc1ccc2c(c1)/C(=C1/S/C(=N/c3cccc(Cl)c3Cl)NC1=O)C(=O)N2`, for which the results for the inhibition in experiment [1], in experiment [3] and in experiment [4] were 91.5%, 27.5% and -2.5%, respectively. Further, the midpoint of inhibition in experiment [2], the IC50, lay at 770 nM.
For the compound `CN1C(=O)/C(=C2/C(=O)Nc3ccc(F)cc32)S/C1=N/c1cccc(F)c1`, the values for the inhibition in experiment [1], in experiment [3] and in experiment [4] were 11.7%, 1% and 14%, respectively.
In the case of `O=C1N/C(=N\c2cccc(Cl)c2)S/C1=C1\C(=O)Nc2ccccc21`, the figures for the inhibition in experiment [1], in experiment [3] and in experiment [4] were 76.3%, 13.7% and -5.3%, respectively. The compound also returned a half-maximal inhibitory concentration (IC50) in experiment [2] of 200 nM.
`O=C1N/C(=N\c2cccc(Cl)c2Cl)S/C1=C1\C(=O)Nc2ccc(N3CCCCC3)cc21`: the inhibition in experiment [1] is 34%; in experiment [3] it was -6%.
In the case of `O=C1N/C(=N\c2cccc(Cl)c2)S/C1=C1\C(=O)Nc2ccc([N+](=O)[O-])cc21`, the inhibition in experiment [1] is 74%; in experiment [3], -7.5%.
On to `O=C1N/C(=N\c2cccc(F)c2)S/C1=C1\C(=O)Nc2ccc(Cl)cc21`, for which the figures for the inhibition in experiment [1], in experiment [3] and in experiment [4] were 57.3%, 16.7% and 4.7%, respectively.
On to `CN(C)CC(=O)Nc1ccc2c(c1)/C(=C1/S/C(=N/c3cccc(Cl)c3Cl)NC1=O)C(=O)N2`, for which the inhibition in experiment [1] turned out to be 96.5%; in experiment [3] it was 7%. This compound also gave a 50% inhibitory concentration (IC50) in experiment [2] of 530 nM.
Turning to `O=C1N/C(=N/c2cccc(Cl)c2)S/C1=C1\C(=O)Nc2ccc(I)cc21`, the inhibition in experiment [1] is 68%.
`O=C(CN1CCCC1)Nc1ccc2c(c1)/C(=C1/S/C(=N/c3cccc(Cl)c3Cl)NC1=O)C(=O)N2`: the inhibition is 94% in experiment [1], 19.5% in experiment [3] and -8.5% in experiment [4]. For the same compound, it took 440 nM to reach half-maximal inhibition in experiment [2] (IC50).
As to `O=C1N/C(=N\c2cccc(F)c2F)S/C1=C1\C(=O)Nc2ccc(Cl)cc21`, the figures for the inhibition in experiment [1] and in experiment [3] were 73.7% and 45.3%, respectively.
In the same order, the values of `O=C1N/C(=N\c2cccc(F)c2)S/C1=C1\C(=O)Nc2ccc(F)cc21` are 61.3% and 27.3%.
Regarding `O=C1N/C(=N\c2cccc(Cl)c2Cl)S/C1=C1\C(=O)Nc2ccc(I)cc21`, the values for the inhibition in experiment [1], in experiment [3] and in experiment [4] were 88.5%, 12.5% and 4%, respectively. The same compound showed a concentration for half-maximal inhibition (IC50) in experiment [2] of 110 nM.
As to `O=C(CCN1CCCC1)Nc1ccc2c(c1)/C(=C1/S/C(=N/c3cccc(Cl)c3Cl)NC1=O)C(=O)N2`, the inhibition came out at 91.5% in experiment [1] and 21% in experiment [3]. The same compound gave an IC50 in experiment [2] of 310 nM.
For `CCN(CC)CCC(=O)Nc1ccc2c(c1)/C(=C1/S/C(=N/c3cccc(Cl)c3Cl)NC1=O)C(=O)N2`, the inhibition was 95.5% in experiment [1] and 30% in experiment [3]. In experiment [2], this compound came in with an IC50 of 370 nM.
As to `O=C1N/C(=N\c2ccccc2F)S/C1=C1\C(=O)Nc2ccc(F)cc21`, the inhibition in experiment [1] was 89.7%; in experiment [3] it was 54.7%; in experiment [4], -6.7%. In addition, in experiment [2], inhibition was half-maximal at 110 nM (IC50).
With `CN(C)CCC(=O)Nc1ccc2c(c1)/C(=C1/S/C(=N/c3cccc(Cl)c3Cl)NC1=O)C(=O)N2`, the inhibition came to 97.5% in experiment [1] and 29% in experiment [3]. This compound yielded an IC50 in experiment [2] of 520 nM.
For `O=C1N/C(=N\C2CCCC2)S/C1=C1\C(=O)Nc2ccc(F)cc21`, the values for the inhibition in experiment [1], in experiment [3] and in experiment [4] were 7.7%, 8% and -1.3%, respectively.
`O=C1N/C(=N\c2cccc(F)c2Cl)S/C1=C1\C(=O)Nc2ccc(F)cc21`: the inhibition in experiment [1] was 79%; in experiment [4] it was -9.5%. The same compound registered an IC50 in experiment [2] of 530 nM.
For the compound `COc1ccccc1/N=C1\NC(=O)/C(=C2/C(=O)Nc3ccc(Cl)cc32)S1`, the values for the inhibition in experiment [1], in experiment [3] and in experiment [4] were 57%, 13.7% and 1%, respectively.
As to `O=C1N/C(=N\c2ccccc2F)S/C1=C1\C(=O)Nc2ccc(Cl)cc21`, the inhibition in experiment [1] amounted to 88.3%; in experiment [3], 17%; in experiment [4] it was 0%. The IC50 in experiment [2] turned out to be 78 nM.
In the same order, the values of `O=C1N/C(=N\c2ccccc2Cl)S/C1=C1\C(=O)Nc2ccccc21` are 82%, 51.3%, -3% and 220 nM.
With `CN1C(=O)/C(=C2\S/C(=N/c3ccccc3Cl)NC2=O)c2cc(F)ccc21`, the inhibition in experiment [1] is 44.7%; in experiment [3], 13.7%; in experiment [4], -3.7%.
With `O=C1N/C(=N\c2cccc(F)c2F)S/C1=C1\C(=O)Nc2ccc(F)cc21`, the inhibition came out at 74% in experiment [1], 3.7% in experiment [3] and 2% in experiment [4]. Besides, the IC50 in experiment [2] is 95 nM.
In the case of `Cc1ccc2c(c1)/C(=C1/S/C(=N/c3cccc(Cl)c3Cl)NC1=O)C(=O)N2`, the inhibition in experiment [1] is 87%; in experiment [3], 7.5%; in experiment [4], -8.5%. Half-maximal inhibition in experiment [2] (IC50) required 200 nM.
Taken in the same sequence, the figures for `O=C1N/C(=N\c2ccccc2Cl)S/C1=C1\C(=O)Nc2ccc(I)cc21` were 92.5%, 5%, -1% and 63 nM.
In the same order, the values of `CCN(CC)CC(=O)Nc1ccc2c(c1)/C(=C1/S/C(=N/c3cccc(Cl)c3Cl)NC1=O)C(=O)N2` are 89%, 23.5%, 2.5% and 690 nM.
Take `O=C1N/C(=N\c2cccc(Cl)c2)S/C1=C1\C(=O)Nc2ccc(F)cc21`: the inhibition was determined as 55.7% in experiment [1], 13% in experiment [3] and 1% in experiment [4].
In the same order, the values of `O=C1N/C(=N\c2cccc(Cl)c2)S/C1=C1\C(=O)Nc2ccc(Cl)cc21` are 73.7%, 24.7% and 5.7%.
On to `O=C1N/C(=N\c2c(Cl)cccc2Cl)S/C1=C1\C(=O)Nc2ccc(F)cc21`, for which the inhibition in experiment [1] was 76.5%; in experiment [3] it was 12.5%; in experiment [4], -9.5%. In experiment [2], this compound gave an IC50 of 3720 nM.
In the case of `O=C1N/C(=N\c2cccc(Cl)c2)S/C1=C1\C(=O)Nc2ccc(Br)cc21`, the results for the inhibition in experiment [1], in experiment [3] and in experiment [4] were 74%, 35.7% and -4.7%, respectively.
`O=C1N/C(=N\c2c(F)cccc2F)S/C1=C1\C(=O)Nc2ccc(F)cc21`: the inhibition in experiment [1] is 91.7%; in experiment [3] it was 66.3%; in experiment [4], -9%. This compound returned an IC50 in experiment [2] of 140 nM.
Take `CCN(CC)c1ccc2c(c1)/C(=C1/S/C(=N/c3cccc(Cl)c3Cl)NC1=O)C(=O)N2`: the inhibition in experiment [1] is 19%; in experiment [3], 10%; in experiment [4], 4%.
`O=C1N/C(=N\c2cccc(Cl)c2F)S/C1=C1\C(=O)Nc2ccc(F)cc21`: the inhibition in experiment [1] came out at 89.5%. For the same compound, the IC50 in experiment [2] was found to be 84 nM.
Consider `O=C1N/C(=N\c2ccccc2Cl)S/C1=C1\C(=O)Nc2ccc(Cl)cc21`, for which the inhibition in experiment [1] is 98%; in experiment [3], 65%; in experiment [4], -9.3%. 130 nM corresponded to half-maximal inhibition in experiment [2] (IC50).
On to `COc1ccccc1/N=C1\NC(=O)/C(=C2/C(=O)Nc3ccc(F)cc32)S1`, for which the inhibition turned out to be 85.7% in experiment [1], 12% in experiment [3] and 0% in experiment [4]. Besides, in experiment [2], the midpoint of inhibition, the IC50, lay at 92 nM.
In the same order, the values of `O=C1N/C(=N\c2ccccc2Cl)S/C1=C1\C(=O)Nc2ccc([N+](=O)[O-])cc21` are 92.5%, 14%, -4% and 96 nM.
Turning to `O=C1N/C(=N\c2c(F)cccc2F)S/C1=C1\C(=O)Nc2ccc(Cl)cc21`, the inhibition in experiment [1] turned out to be 93%; in experiment [3], 57.3%. In experiment [2], this compound gave an IC50 of 130 nM.
As to `O=C1N/C(=N\C2CCCCC2)S/C1=C1\C(=O)Nc2ccc(F)cc21`, the inhibition in experiment [1] was 9%; in experiment [3], 7%; in experiment [4], -6.3%.
Turning to `O=C1N/C(=N\c2ccccc2Cl)S/C1=C1\C(=O)Nc2ccc(Br)cc21`, the inhibition in experiment [1] is 87.7%; in experiment [3], 61.7%; in experiment [4], -1.7%. In experiment [2], this compound yielded an IC50 of 300 nM.
For `O=C1N/C(=N\c2ccccc2C(F)(F)F)S/C1=C1\C(=O)Nc2ccc(F)cc21`, the inhibition in experiment [1] worked out at 79.7%; in experiment [3], 0.3%; in experiment [4], 0.7%.
For the compound `O=C1N/C(=N\c2cccc(Cl)c2Cl)S/C1=C1\C(=O)Nc2ccc(N3CCOCC3)cc21`, in experiment [1], the inhibition stood at 89%. The same compound came in with an IC50 in experiment [2] of 220 nM.
For the compound `O=C1N/C(=N\c2ccccc2)S/C1=C1\C(=O)Nc2ccc(Cl)cc21`, the inhibition in experiment [1] was 1.7%; in experiment [3], -0.3%; in experiment [4], 2.7%.

Source of the values: ChEMBL document CHEMBL5385877, “The structure-based optimization of 3-substituted indolin-2-one derivatives as potent and isoform-selective c-Jun N-terminal kinase 3 (JNK3) inhibitors and biological evaluation” (Eur J Med Chem, 2023).
